Assay results: patent US20170137880A1, “METHOD FOR TREATING DEPRESSION AND MAJOR DEPRESSIVE DISORDER” (Takeda Pharmaceutical Company Limited, priority 2014, published 2017)

Tests used:
Type in all cases: in vivo, human
[1] = test system: adult patients with MDD; test: Response rate by treatment and genetic subgroup (responders: 50% decrease in MADRS total score from baseline at week 8); conditions: for Response rate: 20 mg/day, 8 weeks; for No Response (number of subjects) / Response (number of subjects): Lu 20 mg only
Procedure: (§1) Multicenter, randomized, double-blind, parallel-group, placebo-controlled, drug-referenced, fixed-dose studies were conducted to evaluate the efficacy and safety of vortioxetine (10, 15 and 20 mg/Day) in the acute treatment of adult patients with MDD. A total of 595 individuals meeting the diagnostic criteria from the DSM-IV-TR for recurrent MDD were included in the studies. The current major depressive disorder for each individual was confirmed by the Structured Clinical Interview for DSM Disorders (SCID). […] Individuals were treated with 10, 15 or 20 mg vortioxetine, or a different drug, or a placebo daily for 8 weeks.
(§2) Subjects were seen weekly during the first 2 weeks of treatment and then every 2 weeks up to the end of the 8-week treatment period. The primary outcome measure was change from baseline in MADRS total score after 8 Weeks of treatment. The Montgomery Asberg Depression Rating Scale (MADRS) is a depression rating scale consisting of 10 items, each rated 0 (no symptom) to 6 (severe symptom). The 10 items represent the core symptoms of depressive illness. The rating is based on a clinical interview with the patient, moving from broadly phrased questions about symptoms to more detailed ones, which allow a precise rating of severity, covering the most recent 7 days. Total score is from 0 to 60, with a higher the score being the more severe.
Secondary outcome measures included the proportion of responders at week 8 (responders defined as a 50% decrease in MADRS total score from baseline); a change from baseline in MADRS total score at week 8; and a change in clinical status using CGI-I score at week 8. The Clinical Global Impression—Global Improvement (CGI-I) scale is a 7-point scale rated from 1 (very much improved) to 7 (very much worse). The investigator rated the patient's overall improvement relative to baseline, whether or not, in the opinion of the investigator, this was entirely due to the drug treatment.
Nucleic acid samples from the individuals were run on an Illumina™ HumanOmni5EXOME whole genome bead-chip array according to the manufacturer's protocol. The raw dataset of 595 samples times 4,641,218 variants was narrowed to 473 samples times 3,923,897 variants following quality control (QC).
(§3) A composite score (or genetic score) was calculated via penalized regression using a set of focused genomic regions. The cutoff point of the genetic score that maximizes treatment specific effect was then identified. Statistical significance (via a parametric bootstrap approach) of the treatment effect for the subgroup defined by the optimal cutpoint was then determined.

[2] = test system: MDD individuals; test: Treatment effect by MADRS and HAM-A scores in genetic subgroups; conditions: for Treatment-specific effect (MADRS scores): 5-variant and 7-variant models
Procedure: as §1, §2, §3
A least square means plot of MADRS scores obtained during treatment with 10 mg vortioxetine is shown in FIG. 12B using the 7-variant model. […]

[3] = test system: adult MDD patients; test: Cognition, Cognitive and Physical Functioning Questionnaire (CPFQ); conditions: for Cognition (CPFQ): 7-variant model, adult MDD patients
Description: According to the CDC, cognitive impairment is when a person has trouble remembering, learning new things, concentrating, or making decisions that affect their everyday life. Cognitive impairment ranges from mild to severe. With mild impairment, people may begin to notice changes in cognitive functions, but still be able to do their everyday activities. Severe levels of impairment can lead to losing the ability to understand the meaning or importance of something and the ability to talk or write, resulting in the inability to live independently. Cognitive ability can be assessed by, for example, Massachusetts General Hospital Cognitive and Physical Functioning Questionnaire (see, e.g., Fava et al., J. Clin. Psychiatry, 67:11 (2006)) and/or the Digit Symbol Substitution Test (DSST) (see Mahableshwarker et al., Neuropsychopharmacology, in press 2015).
In FIG. 13, the term “SNP7=1” corresponds to patients in the subgroup identified by the 7-variant model; the term “SNP7=0” corresponds to patients not in the subgroup.

Br.Cc1ccc(Sc2ccccc2N2CCNCC2)c(C)c1 [vortioxetine, 1-[2-(2,4-Dimethyl-phenylsulfanyl)-phenyl]-piperazine, hydrobromide]
Response rate ([1]; COL26A1 rs4045 and a CACNA1C variant positive): 14/17 | Response rate ([1]; Total): 40/120 | Response rate ([1]; Variant negative): 6/25 | Response rate ([1]; subgroup N/A): 28/78 | No Response (number of subjects) ([1]; <NA>): 50 | Response (number of subjects) ([1]; <NA>): 28 | No Response (number of subjects) ([1]; In the Subgroup): 3 | Response (number of subjects) ([1]; In the Subgroup): 14 | No Response (number of subjects) ([1]; Not in Subgroup): 19 | Response (number of subjects) ([1]; Not in Subgroup): 6 | Treatment-specific effect (MADRS scores) ([2]; 10 mg): evidence for a treatment-specific effect | Treatment-specific effect (MADRS scores) ([2]; 20 mg): evidence for a treatment-specific effect | Response to treatment as measured by MADRS and HAM-A scores ([2]; MDD individuals with rs4045 and a CACNA1C variant): significantly enhanced response | Cognition (CPFQ) ([3]; 10 mg/day): evidence for improved cognition | Cognition (CPFQ) ([3]; 20 mg/day): evidence for improved cognition | Cognition ([3]; individuals with COL26A1 rs4045 and a CACNA1C variant, 20 mg/day for 8 weeks): improved cognition
